As a reminder, the EC50 is the concentration needed to bring the measured effect to its halfway point.

Test [1] concerns the target human GLP-1 receptor (hGLP-1R) (Homo sapiens, UniProt P43220). Kind of test: cAMP production (HTRF) in CHO cells expressing hGLP-1R. It counts as cell-based. Set-up: expressed in transfected cells. The conditions noted are these: for EC50: cAMP in CHO hGLP-1R cells, geometric mean, read-out: hGLP-1R EC50; for % Relative Potency Ratio: % GLP-1R activity relative to GLP-1 / % GlucR activity relative to glucagon. Put shortly:
(§1)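 Potency values represent EC50 from 4-parameter logistic curves of HTRF % Delta F signal. Receptor-expressing CHO cells (hGCGR 2×10^5 cells/mL, hGLP-1R 1×10^5 cells/mL) were exposed for 30 min at room temperature before two-step cAMP detection.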

The target of test [2] is human glucagon receptor (hGCGR) (Homo sapiens, UniProt P47871). Kind of test: cAMP production (HTRF) in CHO cells expressing hGCGR. It counts as cell-based. Set-up: expressed in transfected cells. To be noted: cAMP in CHO hGCGR cells, geometric mean, read-out: hGluc-R EC50. Put shortly:
as §1
(In general: Changes in cAMP serve as a functional read-out for many G protein-coupled receptors.)

Setting [3] is: Table 7, peptides modified at position 20.
[4] abbreviates: Table 6, peptides modified at position 17.

The structures appear in SMILES notation. Like-named read-outs stand apart in the source and are kept apart here. Starred links: 1 amine or outer side, 2 acyl side, 3 side chain; linkers in the order of their positions; H or OH if unused. Non-standard residues stand in square brackets, D forms with d. Residues, ends and D or L forms follow the SMILES beside them. Groups on a side chain read outwards from the residue. *: point of attachment. C20 diacid = O=C(O)CCCCCCCCCCCCCCCCCCC(=O)*; Dip = N[C@H](C(=O)O)C(c1ccccc1)c1ccccc1; γGlu = O=C(O)[C@H](CCC(=O)[*:2])N[*:1]; Stearoyl = CCCCCCCCCCCCCCCCCC(=O)*; Palmitoyl = CCCCCCCCCCCCCCCC(=O)*; αMeF = C[C@](N)(Cc1ccccc1)C(=O)O; PEG2 = NCCOCCOCCC(=O)O; AEEA = NCCOCCOCC(=O)O; Aib = CC(C)(N)C(=O)O

Chain of human glucagon receptor (hGCGR) (P47871 26-477): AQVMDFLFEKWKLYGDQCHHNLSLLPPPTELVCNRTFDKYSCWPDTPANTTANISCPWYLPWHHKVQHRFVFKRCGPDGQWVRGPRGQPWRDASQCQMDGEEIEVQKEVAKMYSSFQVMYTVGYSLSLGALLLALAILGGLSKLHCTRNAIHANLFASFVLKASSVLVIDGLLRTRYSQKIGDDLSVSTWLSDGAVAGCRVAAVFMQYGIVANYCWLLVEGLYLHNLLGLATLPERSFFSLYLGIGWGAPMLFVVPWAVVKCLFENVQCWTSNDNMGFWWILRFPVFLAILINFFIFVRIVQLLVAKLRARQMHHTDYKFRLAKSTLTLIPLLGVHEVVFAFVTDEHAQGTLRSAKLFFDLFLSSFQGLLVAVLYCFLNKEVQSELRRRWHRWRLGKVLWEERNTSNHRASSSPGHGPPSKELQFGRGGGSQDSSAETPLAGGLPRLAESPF
Chain of human GLP-1 receptor (hGLP-1R) (P43220 24-463): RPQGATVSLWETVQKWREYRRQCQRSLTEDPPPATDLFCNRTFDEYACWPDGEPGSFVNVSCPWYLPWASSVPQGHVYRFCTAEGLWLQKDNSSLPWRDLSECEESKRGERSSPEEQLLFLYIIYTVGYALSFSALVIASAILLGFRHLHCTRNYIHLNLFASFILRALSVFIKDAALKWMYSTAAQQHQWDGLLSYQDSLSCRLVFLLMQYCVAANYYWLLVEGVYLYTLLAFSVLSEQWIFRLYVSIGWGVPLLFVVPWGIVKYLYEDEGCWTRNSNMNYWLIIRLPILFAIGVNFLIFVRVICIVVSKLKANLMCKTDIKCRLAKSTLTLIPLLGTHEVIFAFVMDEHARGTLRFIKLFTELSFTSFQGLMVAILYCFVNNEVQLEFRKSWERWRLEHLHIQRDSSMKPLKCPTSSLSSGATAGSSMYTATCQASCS

For the compound `CC[C@H](C)[C@H](NC(=O)[C@H](CO)NC(=O)[C@H](CCC(=O)O)NC(=O)[C@@H](NC(=O)[C@H](Cc1ccccc1)NC(=O)[C@H](CC(=O)O)NC(=O)[C@H](CCCCNC(=O)COCCOCCNC(=O)COCCOCCNC(=O)CC[C@H](NC(=O)CCCCCCCCCCCCCCCCCCC(=O)O)C(=O)O)NC(=O)[C@H](C)NC(=O)C(C)(C)NC(=O)[C@H](CCCNC(=N)N)NC(=O)[C@H](CO)NC(=O)[C@H](CC(=O)O)NC(=O)[C@H](CC(C)C)NC(=O)[C@](C)(Cc1ccccc1)NC(=O)[C@H](CCCCN)NC(=O)[C@H](CO)NC(=O)[C@@H](NC(=O)[C@H](CC(=O)O)NC(=O)[C@H](CO)NC(=O)[C@@H](NC(=O)[C@](C)(Cc1ccccc1)NC(=O)[C@H](CO)NC(=O)CNC(=O)[C@H](Cc1c[nH]cn1)NC(=O)C(C)(C)NC(=O)[C@@H](N)Cc1c[nH]cn1)[C@@H](C)O)C(C)C)C(C)C)C(=O)N[C@@H](C)C(=O)N[C@@H](CC(N)=O)C(=O)N[C@H](C(N)=O)[C@@H](C)O` [Peptide 252] (H-H[Aib]HGS[αMeF]TSDVSK[αMeF]LDSR[Aib]AK([AEEA-AEEA-γGlu-C20 diacid])DFVESIANT-NH2), the EC50 is 0.119 nM in test [1] (setting [3]) and 1.31 nM in test [2] (setting [3]). Moreover, the “% Relative Potency Ratio” value in test [1] (Table 7) worked out at 21.7.
`CC[C@H](C)[C@H](NC(=O)C(C)(C)NC(=O)[C@H](CCC(N)=O)NC(=O)[C@@H](NC(=O)[C@](C)(Cc1ccccc1)NC(=O)[C@H](CC(=O)O)NC(=O)[C@H](CCCCNC(=O)COCCOCCNC(=O)CC[C@H](NC(=O)CC[C@H](NC(=O)CCCCCCCCCCCCCCCCCCC(=O)O)C(=O)O)C(=O)O)NC(=O)[C@H](C)NC(=O)[C@H](C)NC(=O)[C@H](CCCNC(=N)N)NC(=O)[C@H](CO)NC(=O)[C@H](CC(=O)O)NC(=O)[C@H](CC(C)C)NC(=O)[C@](C)(Cc1ccccc1)NC(=O)[C@H](CCCCN)NC(=O)[C@H](CO)NC(=O)[C@@H](NC(=O)[C@H](CC(=O)O)NC(=O)[C@H](CO)NC(=O)[C@@H](NC(=O)[C@](C)(Cc1ccccc1)NC(=O)[C@H](CO)NC(=O)CNC(=O)[C@H](Cc1c[nH]cn1)NC(=O)C(C)(C)NC(=O)[C@@H](N)Cc1c[nH]cn1)[C@@H](C)O)C(C)C)C(C)C)C(=O)N[C@@H](C)C(=O)N[C@@H](CC(N)=O)C(=O)N[C@H](C(N)=O)[C@@H](C)O` [Peptide 279] (H-H[Aib]HGS[αMeF]TSDVSK[αMeF]LDSRAAK([AEEA-γGlu-γGlu-C20 diacid])D[αMeF]VQ[Aib]IANT-NH2): the EC50 in test [1] (setting [3]) worked out at 0.0865 nM; in test [2] (setting [3]), 0.15 nM. Besides, the “% Relative Potency Ratio” value in test [1] (Table 7) stood at 3.4.
As to `CC(C)C[C@H](NC(=O)[C@H](Cc1c[nH]c2ccccc12)NC(=O)[C@H](CCC(N)=O)NC(=O)[C@@H](NC(=O)[C@H](Cc1ccccc1)NC(=O)[C@H](CC(=O)O)NC(=O)[C@H](CCC(N)=O)NC(=O)[C@H](C)NC(=O)[C@H](CCCNC(=N)N)NC(=O)[C@H](CCCCNC(=O)COCCOCCNC(=O)COCCOCCNC(=O)CC[C@H](NC(=O)CCCCCCCCCCCCCCCCCCC(=O)O)C(=O)O)NC(=O)[C@@H](NC(=O)[C@H](CC(=O)O)NC(=O)[C@H](CC(C)C)NC(=O)[C@](C)(Cc1ccccc1)NC(=O)[C@H](CCCCN)NC(=O)[C@H](CO)NC(=O)[C@@H](NC(=O)[C@H](CC(=O)O)NC(=O)[C@H](CO)NC(=O)[C@@H](NC(=O)[C@H](Cc1ccccc1)NC(=O)[C@@H](NC(=O)CNC(=O)[C@H](CCC(N)=O)NC(=O)C(C)(C)NC(=O)[C@@H](N)Cc1c[nH]cn1)[C@@H](C)O)[C@@H](C)O)C(C)C)[C@@H](C)O)C(C)C)C(=O)N[C@@H](CC(C)C)C(=O)NC(C)(C)C(=O)N[C@@H](CCC(=O)O)C(=O)O` [Peptide 484] (H-H[Aib]QGTFTSDVSK[αMeF]LDTK([AEEA-AEEA-γGlu-C20 diacid])RAQDFVQWLL[Aib]E-OH; N-terminus assumed), the values for the EC50 in test [1] (setting [4]) and in test [2] (setting [4]) were 0.339 nM and 0.169 nM, respectively. Further, the “% Relative Potency Ratio” value in test [1] (Table 6) amounted to 1.0.
For `CCCCCCCCCCCCCCCC(=O)N[C@@H](CCC(=O)N[C@@H](CCC(=O)NCCOCCOCCC(=O)NCCOCCOCCC(=O)NCCCC[C@H](NC(=O)[C@H](CO)NC(=O)[C@H](CC(=O)O)NC(=O)[C@H](CC(C)C)NC(=O)[C@](C)(Cc1ccccc1)NC(=O)[C@H](CCCCN)NC(=O)[C@H](CO)NC(=O)[C@@H](NC(=O)[C@H](CC(=O)O)NC(=O)[C@H](CO)NC(=O)[C@@H](NC(=O)[C@](C)(Cc1ccccc1)NC(=O)[C@H](CO)NC(=O)CNC(=O)[C@H](CCC(N)=O)NC(=O)[C@H](CO)NC(=O)[C@@H](N)Cc1c[nH]cn1)[C@@H](C)O)C(C)C)C(=O)N[C@@H](C)C(=O)N[C@@H](C)C(=O)N[C@@H](CCC(N)=O)C(=O)N[C@@H](CC(=O)O)C(=O)N[C@@](C)(Cc1ccccc1)C(=O)N[C@H](C(=O)N[C@@H](CCC(N)=O)C(=O)NC(C)(C)C(=O)N[C@H](C(=O)N[C@@H](C)C(=O)N[C@@H](CC(N)=O)C(N)=O)[C@@H](C)CC)C(C)C)C(=O)O)C(=O)O` [Peptide 87] (H-HSQGS[αMeF]TSDVSK[αMeF]LDSK([PEG2-PEG2-γGlu-γGlu-Palmitoyl])AAQD[αMeF]VQ[Aib]IAN-NH2; N-terminus assumed), in that order: 0.00129 nM, 0.00846 nM and 13.0.
For `CC(C)C[C@H](NC(=O)[C@H](Cc1c[nH]c2ccccc12)NC(=O)[C@H](CCCNC(=N)N)NC(=O)[C@@H](NC(=O)[C@H](Cc1ccccc1)NC(=O)[C@H](CC(=O)O)NC(=O)[C@H](CCC(N)=O)NC(=O)[C@H](C)NC(=O)[C@H](CCCNC(=N)N)NC(=O)[C@H](CCCCNC(=O)COCCOCCNC(=O)COCCOCCNC(=O)CC[C@H](NC(=O)CCCCCCCCCCCCCCCCCCC(=O)O)C(=O)O)NC(=O)[C@@H](NC(=O)[C@H](CC(=O)O)NC(=O)[C@H](CC(C)C)NC(=O)[C@](C)(Cc1ccccc1)NC(=O)[C@H](CCCCN)NC(=O)[C@H](CO)NC(=O)[C@@H](NC(=O)[C@H](CC(=O)O)NC(=O)[C@H](CO)NC(=O)[C@@H](NC(=O)[C@H](Cc1ccccc1)NC(=O)[C@@H](NC(=O)CNC(=O)[C@H](CCC(N)=O)NC(=O)C(C)(C)NC(=O)[C@@H](N)Cc1c[nH]cn1)[C@@H](C)O)[C@@H](C)O)C(C)C)[C@@H](C)O)C(C)C)C(=O)N[C@@H](CC(C)C)C(=O)N[C@@H](CCC(=O)O)C(=O)NC(C)(C)C(=O)NCC(=O)O` [Peptide 159], in that order: 0.145 nM, 0.145 nM and 2.0.
The like results for `CCCCCCCCCCCCCCCCCC(=O)N[C@@H](CCC(=O)N[C@@H](CCC(=O)NCCOCCOCCC(=O)NCCOCCOCCC(=O)NCCCC[C@H](NC(=O)[C@H](CO)NC(=O)[C@H](CC(=O)O)NC(=O)[C@H](CC(C)C)NC(=O)[C@@H](NC(=O)[C@H](CCCCN)NC(=O)[C@H](CO)NC(=O)[C@@H](NC(=O)[C@H](CC(=O)O)NC(=O)[C@H](CO)NC(=O)[C@@H](NC(=O)[C@](C)(Cc1ccccc1)NC(=O)[C@H](CO)NC(=O)CNC(=O)[C@H](CCC(N)=O)NC(=O)[C@H](CO)NC(=O)[C@@H](N)Cc1c[nH]cn1)[C@@H](C)O)C(C)C)C(c1ccccc1)c1ccccc1)C(=O)N[C@@H](C)C(=O)N[C@@H](C)C(=O)N[C@@H](CCC(N)=O)C(=O)N[C@@H](CC(=O)O)C(=O)N[C@@](C)(Cc1ccccc1)C(=O)N[C@H](C(=O)N[C@@H](CCC(N)=O)C(=O)N[C@H](C(=O)N[C@@H](CC(C)C)C(=O)N[C@@H](CCC(=O)O)C(=O)N[C@@H](C)C(N)=O)C(c1ccccc1)c1ccccc1)C(C)C)C(=O)O)C(=O)O` [Peptide 55] (H-HSQGS[αMeF]TSDVSK[Dip]LDSK([PEG2-PEG2-γGlu-γGlu-Stearoyl])AAQD[αMeF]VQ[Dip]LEA-NH2; N-terminus assumed) were, in that order, 0.0188 nM, 0.0191 nM and 2.0.
Take `CC(C)C[C@H](NC(=O)[C@H](Cc1c[nH]c2ccccc12)NC(=O)[C@H](CCC(N)=O)NC(=O)[C@@H](NC(=O)[C@H](Cc1ccccc1)NC(=O)[C@H](CC(=O)O)NC(=O)[C@H](CCCCNC(=O)CC[C@H](NC(=O)CCCCCCCCCCCCCCCCC(=O)O)C(=O)O)NC(=O)[C@H](C)NC(=O)[C@H](CCCNC(=N)N)NC(=O)[C@H](CCCNC(=N)N)NC(=O)[C@H](CO)NC(=O)[C@H](CC(=O)O)NC(=O)[C@H](CC(C)C)NC(=O)[C@](C)(Cc1ccccc1)NC(=O)[C@H](CCCCN)NC(=O)[C@H](CO)NC(=O)[C@H](Cc1ccc(O)cc1)NC(=O)[C@H](CC(=O)O)NC(=O)[C@H](CO)NC(=O)[C@@H](NC(=O)[C@H](Cc1ccccc1)NC(=O)[C@@H](NC(=O)CNC(=O)[C@H](CCC(N)=O)NC(=O)C(C)(C)NC(=O)[C@@H](N)Cc1c[nH]cn1)[C@@H](C)O)[C@@H](C)O)C(C)C)C(=O)N[C@@H](CC(C)C)C(=O)N[C@@H](CCC(=O)O)C(=O)NC(C)(C)C(=O)N[C@H](C(=O)O)[C@@H](C)O` [Peptide 341]: the EC50 was 0.363 nM in test [1] (setting [3]) and 0.0728 nM in test [2] (setting [3]). In addition, in test [1] (Table 7), the “% Relative Potency Ratio” value amounted to 0.4.

Source of the values: patent publication US20250353891A1 (MEDIMMUNE LIMITED, priority 2022, published 2025).
